Laboratory results as given in ChEMBL document CHEMBL1201862, “PubChem BioAssay data set” (2004).
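Protocol summary: plate cells (96-well), add compound at 5 concentrations, incubate 48 h, interpolate endpoints linearly. Abbreviation: GI50, concentration required for 50% inhibition of growth.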 The source made the active and inactive calls. Rule as the data show it: active = GI50 up to about 1.1 µM and inactive = higher.

What was measured:
Experiment in all cases: growth of human tumour cells (NCI), 48 h
OVCAR-8 = test system: OVCAR-8
SK-MEL-2 = test system: SK-MEL-2
RPMI-8226 = test system: RPMI-8226
SK-MEL-5 = test system: SK-MEL-5
NCI-H23 = test system: NCI-H23
COLO 205 = test system: COLO 205
U-251 = test system: U-251
SNB-19 = test system: SNB-19
LOX IMVI = test system: LOX IMVI
HL-60 = test system: HL-60
SF-268 = test system: SF-268
K562 = test system: K562
SK-OV-3 = test system: SK-OV-3
UACC-62 = test system: UACC-62
SW-620 = test system: SW-620
HCT-15 = test system: HCT-15
HOP-92 = test system: HOP-92
CCRF-CEM = test system: CCRF-CEM
IGROV-1 = test system: IGROV-1
HOP-62 = test system: HOP-62

Row | SMILES | GI50 (OVCAR-8) | GI50 (SK-MEL-2) | GI50 (RPMI-8226) | GI50 (SK-MEL-5) | GI50 (NCI-H23) | GI50 (COLO 205) | GI50 (U-251) | GI50 (SNB-19) | GI50 (LOX IMVI) | GI50 (HL-60) | GI50 (SF-268) | GI50 (K562) | GI50 (SK-OV-3) | GI50 (UACC-62) | GI50 (SW-620) | GI50 (HCT-15) [µM] | GI50 (HOP-92) | GI50 (CCRF-CEM) | GI50 (IGROV-1) | GI50 (HOP-62)
1 | CC(=O)OCC1OC(n2c(-c3ccc(C)cc3)cc(-c3ccco3)c(C#N)c2=S)C(OC(C)=O)C(OC(C)=O)C1OC(C)=O (stereo not given) | 25.8 µM (inactive) | 41.7 µM (inactive) | > 100 µM (inactive) | 65.2 µM (inactive) | 48 µM (inactive) | > 100 µM (inactive) | 33.8 µM (inactive) | 32.5 µM (inactive) | > 100 µM (inactive) | > 100 µM (inactive) | 56.8 µM (inactive) | > 100 µM (inactive) | 29.9 µM (inactive) | 18.2 µM (inactive) | > 100 µM (inactive) | > 100 | 16.6 µM (inactive) | > 100 µM (inactive) | 98.4 µM (inactive) | 42.7 µM (inactive)
2 | C=C(C(=O)C(=O)Oc1ccc(Cl)cc1)C(=O)c1ccc(C)cc1 | 55.3 µM (inactive) | > 100 µM (inactive) | 31.9 µM (inactive) | 67.6 µM (inactive) | > 100 µM (inactive) | > 100 µM (inactive) | 20.7 µM (inactive) | 53.2 µM (inactive) | < 0.01 µM (active) | 17.9 µM (inactive) | 46.8 µM (inactive) | 81.5 µM (inactive) | > 100 µM (inactive) | 41.4 µM (inactive) | 19.3 µM (inactive) | 38.8 | > 100 µM (inactive) | 22.8 µM (inactive) | > 100 µM (inactive) | > 100 µM (inactive)
3 | COc1ccc2c(c1)CC1Cc3ccccc3CCN1C2 (stereo not given) | > 100 µM (inactive) | 44 µM (inactive) | 39.5 µM (inactive) | 20.2 µM (inactive) | 70.3 µM (inactive) | 35.5 µM (inactive) | 76 µM (inactive) | 55 µM (inactive) | 20 µM (inactive) | 53.1 µM (inactive) | > 100 µM (inactive) | 56.2 µM (inactive) | 20.5 µM (inactive) | 55.1 µM (inactive) | 76 µM (inactive) | 61.2 | 27.7 µM (inactive) | 98.6 µM (inactive) | 38 µM (inactive) | 6.14 µM (inactive)
4 | Cc1c2cnccc2c(C)c2c1c1ccccc1n2CCCCCCNCc1ccccc1 | 0.883 µM (active) | 2.22 µM (inactive) | 0.766 µM (active) | 2.36 µM (inactive) | 1.91 µM (inactive) | 1.43 µM (inactive) | 2.05 µM (inactive) | 1.88 µM (inactive) | 1.07 µM (active) | 1.03 µM (active) | 1.41 µM (inactive) | 0.541 µM (active) | 3.8 µM (inactive) | 2.32 µM (inactive) | 0.608 µM (active) | 1.31 | 2.03 µM (inactive) | 0.489 µM (active) | 1.8 µM (inactive) | 4.17 µM (inactive)
5 | NC1(C(=O)O)CCCC1 [CYCLOLEUCINE] | > 625 µM (inactive) | > 625 µM (inactive) | > 625 µM (inactive) | > 625 µM (inactive) | > 625 µM (inactive) | > 625 µM (inactive) | > 625 µM (inactive) | > 99.1 µM (inactive) | > 625 µM (inactive) | > 625 µM (inactive) | > 177 µM (inactive) | > 625 µM (inactive) | > 625 µM (inactive) | > 625 µM (inactive) | > 625 µM (inactive) | > 625 | > 625 µM (inactive) | > 625 µM (inactive) | > 625 µM (inactive) | > 625 µM (inactive)
